Assay results from US20150274719A1, “AMINO-SUBSTITUTED IMIDAZO[1,2-A]PYRIDINECARBOXAMIDES AND THEIR USE” (BAYER PHARMA AKTIENGESELLSCHAFT, priority 2012, published 2015).
Counter-ions that a name gives are not always drawn.

Target: T1, recombinant guanylate cyclase reporter cell line (Rattus norvegicus, UniProt P19686+P20595)
T1 construct: expressed in transfected cells; host or cells: recombinant reporter cell line
T1 sequence (P19686 1-690): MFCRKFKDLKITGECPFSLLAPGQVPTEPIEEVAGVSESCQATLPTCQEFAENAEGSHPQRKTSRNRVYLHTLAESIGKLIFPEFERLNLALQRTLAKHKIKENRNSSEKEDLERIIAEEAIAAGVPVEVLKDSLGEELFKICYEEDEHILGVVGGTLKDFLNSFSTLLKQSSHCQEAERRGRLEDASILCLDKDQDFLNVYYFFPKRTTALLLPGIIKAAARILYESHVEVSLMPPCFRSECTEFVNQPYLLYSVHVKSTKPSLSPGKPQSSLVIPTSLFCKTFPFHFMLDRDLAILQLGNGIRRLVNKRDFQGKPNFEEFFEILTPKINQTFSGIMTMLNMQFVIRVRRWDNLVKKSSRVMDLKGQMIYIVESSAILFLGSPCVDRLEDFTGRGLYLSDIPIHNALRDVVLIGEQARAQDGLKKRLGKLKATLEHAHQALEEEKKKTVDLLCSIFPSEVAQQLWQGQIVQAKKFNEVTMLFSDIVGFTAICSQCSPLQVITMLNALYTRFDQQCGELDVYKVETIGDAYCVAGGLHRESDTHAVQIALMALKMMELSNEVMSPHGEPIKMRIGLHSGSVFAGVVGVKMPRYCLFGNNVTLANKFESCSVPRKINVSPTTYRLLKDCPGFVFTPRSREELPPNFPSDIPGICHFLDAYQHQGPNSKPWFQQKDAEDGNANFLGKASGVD
T1 sequence (P20595 1-619): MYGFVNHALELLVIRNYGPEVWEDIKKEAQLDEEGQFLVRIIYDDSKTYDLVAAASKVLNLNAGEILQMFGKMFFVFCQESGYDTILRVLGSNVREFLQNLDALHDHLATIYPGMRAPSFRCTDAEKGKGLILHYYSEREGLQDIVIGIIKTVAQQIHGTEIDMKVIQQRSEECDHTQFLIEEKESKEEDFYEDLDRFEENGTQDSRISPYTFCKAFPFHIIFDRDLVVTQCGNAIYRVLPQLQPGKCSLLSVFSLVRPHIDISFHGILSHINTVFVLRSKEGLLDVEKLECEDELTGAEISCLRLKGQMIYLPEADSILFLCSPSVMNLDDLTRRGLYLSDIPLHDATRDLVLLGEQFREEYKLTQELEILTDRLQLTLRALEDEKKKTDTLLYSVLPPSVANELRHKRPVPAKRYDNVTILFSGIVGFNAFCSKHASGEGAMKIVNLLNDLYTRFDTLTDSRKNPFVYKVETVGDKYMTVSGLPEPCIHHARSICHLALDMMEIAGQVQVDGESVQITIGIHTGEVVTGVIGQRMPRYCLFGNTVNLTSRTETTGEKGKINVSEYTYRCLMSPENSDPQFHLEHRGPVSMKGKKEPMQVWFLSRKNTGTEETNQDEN
Experiment: Action on recombinant guanylate cyclase reporter cell line
Type: cell-based
Conditions: in some cases mean values from individual determinations
In short: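 Compounds are tested on whole cells carrying a guanylate cyclase reporter construct. The lowest concentration giving an effect is recorded as the MEC.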

Compared with `Cc1cc(OCc2c(F)cccc2F)c2nc(C)c(C(=O)NC(C#N)CN)n2c1` (racemic) [Example 416, rac-N-(2-amino-1-cyanoethyl)-8-[(2,6-difluorobenzyl)oxy]-2,6-dimethylimidazo[1,2-a]pyridine-3-carboxamide], `Cc1cc(OCc2c(F)cccc2F)c2nc(C)c(C(=O)NCC(N)CC(F)(F)F)n2c1` (single isomer, unassigned) [Example 128, ent-N-(2-Amino-4,4,4-trifluorobutyl)-8-[(2,6-difluorobenzyl)oxy]-2,6-dimethylimidazo[1,2-a]-pyridine-3-carboxamide] is 10-fold lower in “MEC (minimal effective concentration)” value: 1.00 µM for the first, 0.10 µM for the second.

First: Cc1nc2c(OCc3c(F)cccc3F)cccn2c1C(=O)NC(C)CN (single isomer, unassigned) [Example 19, ent-N-(1-Aminopropan-2-yl)-8-[(2,6-difluorobenzyl)oxy]-2-methylimidazo[1,2-a]pyridine-3-carboxamide]
Second: Cc1nc2c(OCc3c(F)cccc3F)cccn2c1C(=O)NCC(C)CN (single isomer, unassigned) [Example 95, ent-N-(3-Amino-2-methylpropyl)-8-[(2,6-difluorobenzyl)oxy]-2-methylimidazo[1,2-a]pyridine-3-carboxamide dihydrochloride]
The “MEC (minimal effective concentration)” value of the first is 1.7-fold higher: 1.66 µM for the first, 1.00 µM for the second.

`Cc1nc2c(OCc3c(F)cccc3F)cccn2c1C(=O)NC(C)CN` (single isomer, unassigned) [Example 20, ent-N-(1-Aminopropan-2-yl)-8-[(2,6-difluorobenzyl)oxy]-2-methylimidazo[1,2-a]pyridine-3-carboxamide] and `Cc1nc2c(OCc3c(F)cccc3F)cccn2c1C(=O)NCC(C)CN` (single isomer, unassigned) [Example 96, ent-N-(3-Amino-2-methylpropyl)-8-[(2,6-difluorobenzyl)oxy]-2-methylimidazo[1,2-a]pyridine-3-carboxamide dihydrochloride] are the same in “MEC (minimal effective concentration)” value: 1.00 µM for the first, 1.00 µM for the second.

`Cc1nc2c(OCc3c(F)cccc3F)cc(Cl)cn2c1C(=O)NCC(C)N` (single isomer, unassigned) [Example 29, ent-N-(2-Aminopropyl)-6-chloro-8-[(2,6-difluorobenzyl)oxy]-2-methylimidazo[1,2-a]pyridine-3-carboxamide] and `CCOCC(CN)NC(=O)c1c(C)nc2c(OCc3c(F)cccc3F)cc(Cl)cn12` (single isomer, unassigned) [Example 57, ent-N-(1-amino-3-ethoxypropan-2-yl)-6-chloro-8-[(2,6-difluorobenzyl)oxy]-2-methylimidazo[1,2-a]-pyridine-3-carboxamide] are within 1.5-fold of each other in “MEC (minimal effective concentration)” value: 0.20 µM for the first, 0.30 µM for the second.

Going from `Cc1nc2c(OCc3c(F)cccc3F)cc(Cl)cn2c1C(=O)NCC(C)N` (single isomer, unassigned) [Example 30, ent-N-(2-Aminopropyl)-6-chloro-8-[(2,6-difluorobenzyl)oxy]-2-methylimidazo[1,2-a]pyridine-3-carboxamide] to `Cc1cc(OCc2c(F)cccc2F)c2nc(C)c(C(=O)NCC(N)CC(F)(F)F)n2c1` (single isomer, unassigned) [Example 129, ent-N-(2-Amino-4,4,4-trifluorobutyl)-8-[(2,6-difluorobenzyl)oxy]-2,6-dimethylimidazo[1,2-a]-pyridine-3-carboxamide], the “MEC (minimal effective concentration)” value falls from 0.30 µM to 0.10 µM (3-fold).

`CCOCC(CN)NC(=O)c1c(C)nc2c(OCc3c(F)cccc3F)cccn12` (single isomer, unassigned) [Example 56, ent-N-(1-amino-3-ethoxypropan-2-yl)-8-[(2,6-difluorobenzyl)oxy]-2-methylimidazo[1,2-a]-pyridine-3-carboxamide] and `COCC(CN)NC(=O)c1c(C)nc2c(OCc3c(F)cccc3F)cccn12` (single isomer, unassigned) [Example 122, ent-N-(1-Amino-3-methoxypropan-2-yl)-8-[(2,6-difluorobenzyl)oxy]-2-methylimidazo[1,2-a]-pyridine-3-carboxamide ditrifluoroacetate] are the same in “MEC (minimal effective concentration)” value: 1.00 µM for the first, 1.00 µM for the second.

First: Cc1nc2c(OCc3c(F)cccc3F)cccn2c1C(=O)NC(CN)COC(C)C (single isomer, unassigned) [Example 93, ent-N-(1-Amino-3-isopropoxypropan-2-yl)-8-[(2,6-difluorobenzyl)oxy]-2-methylimidazo[1,2-a]-pyridine-3-carboxamide]
Second: COCC(CN)NC(=O)c1c(C)nc2c(OCc3c(F)cccc3F)cccn12 (single isomer, unassigned) [Example 123, ent-N-(1-Amino-3-methoxypropan-2-yl)-8-[(2,6-difluorobenzyl)oxy]-2-methylimidazo[1,2-a]-pyridine-3-carboxamide ditrifluoroacetate]
The “MEC (minimal effective concentration)” value of the first is 10-fold lower: 0.30 µM for the first, 3.00 µM for the second.

`Cc1nc2c(OCc3c(F)cccc3F)cccn2c1C(=O)NCC(N)CC(F)(F)F` (single isomer, unassigned) [Example 126, ent-N-(2-Amino-4,4,4-trifluorobutyl)-8-[(2,6-difluorobenzyl)oxy]-2-methylimidazo[1,2-a]pyridine-3-carboxamide] and `Cc1nc2c(OCc3c(F)cccc3F)cccn2c1C(=O)NC(C)[C@H](C)N` (single isomer, unassigned) [Example 174] are the same in “MEC (minimal effective concentration)” value: 0.30 µM for the first, 0.30 µM for the second.

`Cc1nc2c(OCc3c(F)cccc3F)cccn2c1C(=O)NCC(N)CC(F)(F)F` (single isomer, unassigned) [Example 127, ent-N-(2-Amino-4,4,4-trifluorobutyl)-8-[(2,6-difluorobenzyl)oxy]-2-methylimidazo[1,2-a]pyridine-3-carboxamide] and `Cc1nc2c(OCc3c(F)cccc3F)cccn2c1C(=O)NC(C)[C@H](C)N` (single isomer, unassigned) [Example 175] are the same in “MEC (minimal effective concentration)” value: 1.00 µM for the first, 1.00 µM for the second.

`Cc1nc2c(OCc3c(F)cccc3F)cccn2c1C(=O)NC(C)[C@@H](C)N` (single isomer, unassigned) [Example 176] and `Cc1nc2c(OCc3c(F)cccc3F)cccn2c1C(=O)NC12CNCCC1C2` (single isomer, unassigned) [Example 184, ent-N-(3-Azabicyclo[4.1.0]hept-1-yl)-8-[(2,6-difluorobenzyl)oxy]-2-methylimidazo[1,2-a]pyridine-3-carboxamide] are the same in “MEC (minimal effective concentration)” value: 1.00 µM for the first, 1.00 µM for the second.

`Cc1nc2c(OCc3c(F)cccc3F)cccn2c1C(=O)NC(C)[C@@H](C)N` (single isomer, unassigned) [Example 177] and `Cc1nc2c(OCc3c(F)cccc3F)cccn2c1C(=O)NC12CNCCC1C2` (single isomer, unassigned) [Example 185, ent-N-(3-Azabicyclo[4.1.0]hept-1-yl)-8-[(2,6-difluorobenzyl)oxy]-2-methylimidazo[1,2-a]pyridine-3-carboxamide] are the same in “MEC (minimal effective concentration)” value: 1.00 µM for the first, 1.00 µM for the second.

`Cc1nc2c(OCC3CCCCC3)cccn2c1C(=O)NC(CN)c1ccc(F)c(F)c1` (single isomer, unassigned) [Example 178, ent-N-[2-Amino-1-(3,4-difluorophenyl)ethyl]-8-(cyclohexylmethoxy)-2-methylimidazo[1,2-a]-pyridine-3-carboxamide] was tested, and the “MEC (minimal effective concentration)” value was 0.30 µM.
For `Cc1nc2c(OCC3CCCCC3)cccn2c1C(=O)NC(CN)c1ccc(F)c(F)c1` (single isomer, unassigned) [Example 179, ent-N-[2-Amino-1-(3,4-difluorophenyl)ethyl]-8-(cyclohexylmethoxy)-2-methylimidazo[1,2-a]-pyridine-3-carboxamide], the “MEC (minimal effective concentration)” value was 1.00 µM.
